{
  "source": "paper PMC9873282",
  "about": "“Design, synthesis and evaluation of quinoline-O-carbamate derivatives as multifunctional agents for the treatment of Alzheimer’s disease” (Journal of Enzyme Inhibition and Medicinal Chemistry, 2023)",
  "key": {"AChE": {"tested_on": "AChE", "experiment": "AChE activity in AlCl3-induced zebrafish AD model tissue", "assay_type": "in vivo"}, "zebrafish embryos": {"tested_on": "zebrafish embryos", "experiment": "Acute toxicity in zebrafish embryos", "experimental": "The survival rate of zebrafish embryos was observed and recorded every 24h, and observation was stopped when zebrafish embryos developed to 120 hpf. […] When the culture was to be 120hpf, photographic observations were made under a body microscope (RM2235; Leica). And the body length, pericardial oedema, swim bladder area, liver area, and liver fluorescence intensity of zebrafish were measured by ImageJ software. • Zebrafish experimental grouping. […] All the data were expressed as mean ± SEM and statistical analysis were performed using GraphPad Prism software. The significance of differences were determined using one-way ANOVA. Data were expressed as mean ± standard deviation, and *p < 0.05 indicates a significant difference."}, "[1]": {"tested_on": "Aβ25-35-induced PC12 cells injury", "experiment": "Neuroprotective effect on Aβ25-35-induced PC12 cells injury (CCK-8)", "assay_type": "cell-based", "conditions": "25 µM Aβ25-35; model cell viability 57.3%", "description": "(§1) The neuroprotective effect of compounds 3a, 3c, 3e, 3f, 3k, 3m, and 3n on Aβ25–35-induced PC12 cells injury were evaluated using CCK-8 assay. […] Furthermore, as shown in Figure 12(B), when PC12 cells were exposed to 25 µM Aβ25-35, the cell viability sharply declined to 57.3% (p < 0.01) compared with untreated group.\n• Preparation of Aβ25-35 aggregation. Aβ25-35 was purchased from sigma. 1 mg Aβ25-35 was dissolved in 943 µL of sterilised deionised water to obtain 1 mM stock solution, aliquoted, –20 °C preservation. Removing the appropriate volume in a 48-well plate and incubated in a 37 °C incubator for two days to allow its ageing to accumulate and produce neurotoxicity. After aggregation was completed, the solution was diluted with PBS to get 25 µM solution of Aβ25-35 aggregation. • Neuroprotective effects of compounds on Aβ25-35-induced PC12 cells injury\n(§2) The PC12 cells during the logarithmic growth phase were digested and centrifuged with pancreatic enzyme solution, the cells were resuspended by adding the prepared media solution, and piped evenly with a pipette to seed in a 96-well cell culture plate (cell concentration adjusted to 2.0 × 10^4 cell·mL^−1). Each well was added 100 µL complete medium was added to each well and incubated at 37 °C and 5% CO2 for 24 h.\nAfter incubation for 24 h, PC12 cells were divided into blank group, control group, Aβ25-35 model group and tested compounds group (5, 10, 20 µM). Then the original medium was discarded, and 100 µL new complete medium were added to PC12 cells, and the tested compounds group was added to 100 µL complete medium containing different concentrations (5, 10, and 20 µM) of tested compounds, incubated for 2 h at 37 °C, 5% CO2 conditions. After incubation for 2 h, 10 µL Aβ25-35 solution was added to the tested compounds groups and model group (the final concentration of Aβ25-35 was 25 µM), and incubated for 24 h at 37 °C, 5% CO2 conditions, 10 µL CCK-8 was added to each well and further incubated for 1 h at 37 °C and 5% CO2. Finally, the OD value was measured at 450 nm using a microplate reader, and each concentration set three wells. The cell survival rate (%) was determined according to the following formula: cell viability (%) = {(ODdrug−ODblank)}/{(ODcontrol−ODblank)}."}, "[2]": {"tested_on": "AlCl3-induced zebrafish AD model", "experiment": "Behavioural assay in AlCl3-induced zebrafish AD model", "assay_type": "in vivo"}, "eqBuChE": {"molecular_target": "T1, eqBuChE (Equus caballus, UniProt P81908)", "T1 construct": "eqBuChE, from equine serum; purchased Sigma Aldrich; host or cells: equine serum (natural source)", "T1 sequence (P81908 whole entry)": "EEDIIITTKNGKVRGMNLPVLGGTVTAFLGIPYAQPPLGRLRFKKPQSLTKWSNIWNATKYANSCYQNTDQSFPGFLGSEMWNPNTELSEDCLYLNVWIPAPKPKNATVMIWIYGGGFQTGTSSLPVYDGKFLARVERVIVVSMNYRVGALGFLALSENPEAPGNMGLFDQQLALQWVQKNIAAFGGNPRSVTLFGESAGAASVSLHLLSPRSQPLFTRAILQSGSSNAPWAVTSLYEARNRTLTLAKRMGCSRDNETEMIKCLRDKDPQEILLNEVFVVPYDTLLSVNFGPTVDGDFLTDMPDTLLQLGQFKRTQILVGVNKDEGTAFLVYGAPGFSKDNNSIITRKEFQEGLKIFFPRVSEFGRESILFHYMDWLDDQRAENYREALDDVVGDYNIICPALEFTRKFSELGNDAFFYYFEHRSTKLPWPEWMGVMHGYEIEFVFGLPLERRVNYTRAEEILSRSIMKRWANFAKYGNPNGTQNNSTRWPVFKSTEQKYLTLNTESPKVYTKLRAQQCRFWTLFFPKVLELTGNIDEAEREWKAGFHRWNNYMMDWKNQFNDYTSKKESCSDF", "experiment": "biochemical", "design": "species or system equine", "description": "(§3) The inhibitory activities of the synthesised compounds against eeAChE (from electric eel) and eqBuChE (from equine serum) were tested by the modified Ellman’s method[26]^,[27]. […] The determination of AChE and BuChE inhibitory potency of the synthesised compounds were evaluated by Ellman assay, the detailed procedure referred to our previous work[26]^,[27]."}, "PC12 cells": {"tested_on": "PC12 cells", "experiment": "Cytotoxicity on PC12 cells", "assay_type": "cell-based", "conditions": "at concentration below 40 µM", "description": "as §1, §2"}, "eeAChE": {"molecular_target": "T2, eeAChE (Electrophorus electricus, UniProt O42275)", "T2 construct": "eeAChE, from the electric eel; purchased Sigma Aldrich; host or cells: electric eel (natural source)", "T2 sequence (O42275 24-633)": "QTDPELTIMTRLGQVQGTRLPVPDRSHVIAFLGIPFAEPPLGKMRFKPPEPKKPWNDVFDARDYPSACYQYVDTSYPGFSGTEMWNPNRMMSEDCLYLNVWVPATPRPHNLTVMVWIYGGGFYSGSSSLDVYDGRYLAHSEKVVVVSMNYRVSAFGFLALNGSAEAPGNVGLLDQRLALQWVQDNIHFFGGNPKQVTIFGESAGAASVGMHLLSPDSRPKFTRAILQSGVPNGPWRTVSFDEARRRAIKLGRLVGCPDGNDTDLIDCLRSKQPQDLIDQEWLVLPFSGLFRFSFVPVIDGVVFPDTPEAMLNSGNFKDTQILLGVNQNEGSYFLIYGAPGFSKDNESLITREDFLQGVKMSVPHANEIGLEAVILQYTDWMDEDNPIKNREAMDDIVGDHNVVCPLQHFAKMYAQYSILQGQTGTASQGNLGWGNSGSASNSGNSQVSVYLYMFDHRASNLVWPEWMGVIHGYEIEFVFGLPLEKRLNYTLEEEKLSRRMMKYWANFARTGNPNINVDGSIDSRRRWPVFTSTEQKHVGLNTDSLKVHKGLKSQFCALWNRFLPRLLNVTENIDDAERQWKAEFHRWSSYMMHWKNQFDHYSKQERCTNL", "experiment": "biochemical", "design": "species or system electric eel", "conditions": "AChE from electric eel; read-out: IC50 ± SD eeAChE", "description": "as §3"}, "hBuChE [3]": {"molecular_target": "T3, hBuChE (Homo sapiens, UniProt P06276)", "T3 construct": "hBuChE, human serum BuChE; purchased Sigma Aldrich; host or cells: human serum (natural source)", "T3 sequence (P06276 29-602)": "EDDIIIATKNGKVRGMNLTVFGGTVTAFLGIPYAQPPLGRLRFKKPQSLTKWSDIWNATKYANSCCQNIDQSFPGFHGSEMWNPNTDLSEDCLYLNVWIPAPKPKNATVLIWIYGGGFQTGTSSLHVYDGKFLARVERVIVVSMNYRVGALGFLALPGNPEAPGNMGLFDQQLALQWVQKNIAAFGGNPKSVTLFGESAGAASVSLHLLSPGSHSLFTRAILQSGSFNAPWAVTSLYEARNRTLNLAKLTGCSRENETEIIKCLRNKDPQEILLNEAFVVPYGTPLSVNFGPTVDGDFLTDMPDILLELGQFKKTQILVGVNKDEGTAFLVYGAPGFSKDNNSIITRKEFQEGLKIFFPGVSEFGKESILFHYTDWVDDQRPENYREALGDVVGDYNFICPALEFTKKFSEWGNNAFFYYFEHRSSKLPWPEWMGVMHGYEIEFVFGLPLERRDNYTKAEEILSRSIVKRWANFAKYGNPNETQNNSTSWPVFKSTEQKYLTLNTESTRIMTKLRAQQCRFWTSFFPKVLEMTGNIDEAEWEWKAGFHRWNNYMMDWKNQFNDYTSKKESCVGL", "experiment": "biochemical", "description": "(§4) Acetylcholinesterase (eeAChE, from the electric eel; hAChE, from human erythrocytes AChE), butyrylcholinesterase (eqBuChE, from equine serum; hBuChE, human serum BuChE), 5,5′-dithiobis-2-nitrobenzoic acid (Ellman’s reagent, DTNB), acetylthiocholine chloride (ATC), and butyrylthiocholine chloride (BTC) were purchased form Sigma Aldrich. The determination of AChE and BuChE inhibitory potency of the synthesised compounds were evaluated by Ellman assay, the detailed procedure referred to our previous work[26]^,[27]."}, "hAChE": {"molecular_target": "T4, hAChE (Homo sapiens, UniProt P22303)", "T4 construct": "hAChE, from human erythrocytes AChE; purchased Sigma Aldrich; host or cells: human erythrocytes (natural source)", "T4 sequence (P22303 32-617 isoform P22303-2 limits assumed)": "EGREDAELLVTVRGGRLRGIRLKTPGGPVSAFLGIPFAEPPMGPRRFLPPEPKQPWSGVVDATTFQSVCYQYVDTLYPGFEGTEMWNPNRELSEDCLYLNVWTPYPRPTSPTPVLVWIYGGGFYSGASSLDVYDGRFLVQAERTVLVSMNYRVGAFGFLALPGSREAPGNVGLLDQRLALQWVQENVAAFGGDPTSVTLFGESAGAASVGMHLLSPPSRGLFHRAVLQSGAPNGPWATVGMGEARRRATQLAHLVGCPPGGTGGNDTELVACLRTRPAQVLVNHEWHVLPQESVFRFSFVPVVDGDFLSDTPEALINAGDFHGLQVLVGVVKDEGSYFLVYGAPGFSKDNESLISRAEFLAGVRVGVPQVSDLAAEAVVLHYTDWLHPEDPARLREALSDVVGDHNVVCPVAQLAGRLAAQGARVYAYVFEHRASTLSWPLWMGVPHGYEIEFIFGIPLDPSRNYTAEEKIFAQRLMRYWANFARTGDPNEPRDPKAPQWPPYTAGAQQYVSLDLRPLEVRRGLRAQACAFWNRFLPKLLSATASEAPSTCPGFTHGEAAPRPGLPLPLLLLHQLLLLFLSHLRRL", "experiment": "biochemical", "conditions": "from human erythrocytes; read-out: IC50 ± SD hAChE", "description": "as §4"}, "hBuChE [4]": {"molecular_target": "T3, hBuChE", "experiment": "hBuChE reversibility of inhibition (recovery after dilution)", "assay_type": "biochemical"}, "[5]": {"experiment": "Rat liver microsomes stability", "conditions": "after 60 min incubation", "experimental": "• 2.The stability of 3f was performed in rat liver microsomes. The rat liver microsomes was purchased from Dalian Meilun Biotechnology Co., Ltd, DaLian, China. […] Solution B (25 mL) contained G-6-P-DH (1000 U), Na-Citrate2 (200 mg), and H2O was used as a solvent. NADPH solution (1 mM) was composed by solution A and solution B (v/v = 5:1). […] The reaction was started by the addition of NADPH. The total mixture (200 µL) was incubated at 37 °C. Cold methanol (600 µL) was added at 0, 5, 15, 20, 30, 45 and 60 min, respectively, to stop the reaction. Samples were centrifuged at 13000 rpm for 10 min at 4 °C, and 100 µL supernatant was removed and analysed by UPLC-MS/MS. The stability results were presented as % remaining vs. time. The experiments were conducted in triplicate. • 3.The stability of 3f was performed in rat plasma. […] The supernatant was dried and redissolved in 100 µL methanol. After centrifugation, the supernatant was analysed by UPLC-MS/MS. The stability data were presented as remaining percentage vs time."}, "[6]": {"conditions": "alternating dark light stimuli, 0.08 µM"}, "[7]": {"conditions": "alternating dark light stimuli, 0.16 µM"}, "[8]": {"conditions": "alternating dark light stimuli, 0.32 µM"}},
  "note": "“And” between values parts separate entries of the source, which are not always exact repeats. Equal entries are not always repeated.",
  "data": [
    {"smiles": "CCN(CC)C(=O)Oc1cccc2ncccc12", "note": "[Compound 3f, Quinolin-5-yl diethylcarbamate]", "values": [
      {"measurement": "AChE activity", "setting": "AChE; 0.08 µM", "value": 98095.7, "unit": "nmol/min/g"},
      {"measurement": "AChE activity", "setting": "AChE; 0.16 µM", "value": 64663.2, "unit": "nmol/min/g"},
      {"measurement": "AChE activity", "setting": "AChE; 0.32 µM", "value": 102433.6, "unit": "nmol/min/g"},
      {"measurement": "percentage survival", "setting": "zebrafish embryos; 40.9 µM, 4 hpf", "value": 100, "unit": "%"},
      {"measurement": "survival", "setting": "zebrafish embryos; 40.9 µM, 24 hpf", "value": "all the zebrafish were dead"},
      {"measurement": "liver florescence area and median fluorescence intensity", "setting": "zebrafish embryos; 0.65, 1.3 and 2.6 µM", "value": "did not produce obvious change"},
      {"measurement": "pericardial oedema/body length", "setting": "zebrafish embryos; at five concentrations of 3f, 120 hpf", "value": "did not produce significant change"},
      {"measurement": "maximum non-lethal concentration (MNLC)", "setting": "zebrafish embryos; zebrafish, in vivo", "value": 20.5, "unit": "µM"},
      {"measurement": "neuroprotective effect on Aβ25-35-induced PC12 cells injury", "setting": "[1]", "value": "remarkable neuroprotective effects at 5 and 10 µM"},
      {"measurement": "total velocity", "setting": "[2]; 0.16 µM, compared with donepezil", "value": "could improve AlCl3-induced zebrafish AD model"},
      {"measurement": "distance moved", "setting": "[2]; [6]", "value": 1029.2, "unit": "cm"},
      {"measurement": "velocity", "setting": "[2]; [6]", "value": 17.5, "unit": "cm/min"},
      {"measurement": "distance moved", "setting": "[2]; [7]", "value": 1241.5, "unit": "cm"},
      {"measurement": "velocity", "setting": "[2]; [7]", "value": 22.3, "unit": "cm/min"},
      {"measurement": "distance moved", "setting": "[2]; [8]", "value": 1022.8, "unit": "cm"},
      {"measurement": "velocity", "setting": "[2]; [8]", "value": 17.0, "unit": "cm/min"},
      {"measurement": "distance moved", "setting": "[2]; dark environment, 0.08 µM", "value": 607.3, "unit": "cm"},
      {"measurement": "velocity", "setting": "[2]; dark environment, 0.08 µM", "value": 21.3, "unit": "cm/min"},
      {"measurement": "distance moved", "setting": "[2]; dark environment, 0.16 µM", "value": 709.4, "unit": "cm"},
      {"measurement": "velocity", "setting": "[2]; dark environment, 0.16 µM", "value": 24.7, "unit": "cm/min"},
      {"measurement": "distance moved", "setting": "[2]; dark environment, 0.32 µM", "value": 521.7, "unit": "cm"},
      {"measurement": "velocity", "setting": "[2]; dark environment, 0.32 µM", "value": 17.3, "unit": "cm/min"},
      {"measurement": "optimal dose", "setting": "[2]; dyskinesia and reaction capacity, ACh levels", "value": 0.16, "unit": "µM"},
      {"measurement": "velocity", "setting": "[2]; light condition, 0.08 µM", "value": 14.7, "unit": "cm/min"},
      {"measurement": "velocity", "setting": "[2]; light condition, 0.16 µM", "value": 19.3, "unit": "cm/min"},
      {"measurement": "velocity", "setting": "[2]; light condition, 0.32 µM", "value": 17.6, "unit": "cm/min"},
      {"measurement": "IC50", "setting": "eqBuChE; BuChE from equine serum, read-out: IC50 ± SD eqBuChE", "value": "0.81 ± 0.06", "unit": "µM"},
      {"measurement": "SI = IC50 (AChE)/IC50 (BuChE)", "setting": "eqBuChE; eeAChE/eqBuChE", "value": 1.6},
      {"measurement": "cytotoxicity on PC12 cells", "setting": "PC12 cells", "value": "did not show any cytotoxicity"},
      {"measurement": "IC50", "setting": "eeAChE", "value": "1.3 ± 0.02", "unit": "µM"},
      {"measurement": "IC50", "setting": "hBuChE [3]; from human serum, read-out: IC50 ± SD hBuChE", "value": "2.34 µM and 2.3 µM"},
      {"measurement": "SI = IC50 (AChE)/IC50 (BuChE)", "setting": "hBuChE [3]; hAChE/hBuChE", "value": 2.4},
      {"measurement": "IC50", "setting": "hAChE", "value": "5.6 ± 0.07", "unit": "µM"},
      {"measurement": "reversibility of hBuChE inhibition", "setting": "hBuChE [4]", "value": "reversible hBuChE inhibitor"},
      {"measurement": "hBuChE activity (% control)", "setting": "hBuChE [4]; 0.1*IC50, diluted", "value": 53.6, "unit": "% control"},
      {"measurement": "hBuChE activity restored", "setting": "hBuChE [4]; 0.1 × IC50, 120 min", "value": 70.7, "unit": "%"},
      {"measurement": "hBuChE activity restored", "setting": "hBuChE [4]; 0.1 × IC50, 240 min", "value": 95.6, "unit": "%"},
      {"measurement": "hBuChE activity (% control)", "setting": "hBuChE [4]; 1*IC50, diluted", "value": 51.4, "unit": "% control"},
      {"measurement": "hBuChE activity (% control)", "setting": "hBuChE [4]; 1*IC50, undiluted", "value": 48.8, "unit": "% control"},
      {"measurement": "remaining amount in rat liver microsomes", "setting": "[5]", "value": 104.4, "unit": "%"}
    ]}
  ]
}
